Results: article PMC8720286 (Chemical biology & drug design, 2020)
In brackets after ≈: the same amount, converted by molar mass.

Assays:
Mtb V4207/DS = test: microbe, parasite or virus in culture; type: cell-based; details: Mycobacterium tuberculosis, read-out: Mtb MIC V4207/DS
Mtb KZN494/MDR = test: microbe, parasite or virus in culture; type: cell-based, Mycobacterium tuberculosis; details: relative to H37Rv MIC
in vitro [1] = type: cell-based; details: African green monkey
Vero cells = test: in vitro; type: cell-based; details: IC50 (Vero)/MIC
in vitro [2] = type: in vitro ADME; details: human, plasma
in vitro [3] = type: in vitro ADME; details: mouse, plasma
CYP1A2 = target: T1, CYP1A2 (Homo sapiens, UniProt P05177); test: CYP inhibition, CYP1A2; type: in vitro ADME
T1 sequence (P05177 1-516): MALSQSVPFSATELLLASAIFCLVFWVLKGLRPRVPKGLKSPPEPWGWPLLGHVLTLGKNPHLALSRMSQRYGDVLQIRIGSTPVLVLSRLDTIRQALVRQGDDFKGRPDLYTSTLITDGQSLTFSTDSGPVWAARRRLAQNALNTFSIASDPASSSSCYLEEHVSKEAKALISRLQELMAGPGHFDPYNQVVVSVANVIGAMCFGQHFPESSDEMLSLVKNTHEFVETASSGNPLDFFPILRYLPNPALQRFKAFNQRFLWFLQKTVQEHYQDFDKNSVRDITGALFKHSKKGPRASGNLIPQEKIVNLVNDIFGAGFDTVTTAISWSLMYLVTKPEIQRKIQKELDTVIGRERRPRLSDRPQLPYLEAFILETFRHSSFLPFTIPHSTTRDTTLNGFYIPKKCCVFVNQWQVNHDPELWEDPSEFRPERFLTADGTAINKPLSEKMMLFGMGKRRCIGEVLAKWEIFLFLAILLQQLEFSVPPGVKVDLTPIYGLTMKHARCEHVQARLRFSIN

CYP2C9 = CYP2C9 (Homo sapiens, UniProt P11712); test: CYP inhibition, CYP2C9; type: in vitro ADME
CYP2C19 = CYP2C19 (Homo sapiens, UniProt P33261); test: CYP inhibition, CYP2C19; type: in vitro ADME
CYP2D6 = CYP2D6 (Homo sapiens, UniProt P10635); test: CYP inhibition, CYP2D6; type: in vitro ADME
CYP3A4 = CYP3A4 (Homo sapiens, UniProt P08684); test: CYP inhibition, CYP3A4; type: in vitro ADME; details: probe midazolam
hERG = hERG (Homo sapiens, UniProt Q12809); test: hERG channel inhibition, manual patch-clamp; type: cell-based; details: human
[4] = target: human Ether-à-go-go related gene (hERG) channel (Homo sapiens, UniProt Q12809); test: hERG channel inhibition, manual patch-clamp; type: cell-based
in vitro [5] = type: in vitro ADME
in vitro [6] = type: in vitro ADME; details: human, microsomes, Liver microsomes, % remaining after 1 hr (human)
in vitro [7] = type: in vitro ADME; details: mouse, microsomes, Liver microsomes, % remaining after 1 hr (mouse)
clinical isolates of Mtb = type: cell-based, Mycobacterium tuberculosis; details: for MIC range against MDR and XDR strains of TB: range over both compounds and strains; for fold drop in activity against the tested clinical isolates of Mtb: relative to H37Rv MIC
Mtb H37Rv = test: MIC determination by microplate AlamarBlue assay; details: for Mtb MIC H37Rv/DS: Table 2, H37Rv drug-sensitive; for anti-TB activity in words: susceptible strain of Mtb, SAR discussion; for fold more potent against M.tb than counterparts 3 - 5 with no carbon spacer: 9 vs 3, 10 vs 4, 11 vs 5

CYP2D6, sequence (P10635 whole entry): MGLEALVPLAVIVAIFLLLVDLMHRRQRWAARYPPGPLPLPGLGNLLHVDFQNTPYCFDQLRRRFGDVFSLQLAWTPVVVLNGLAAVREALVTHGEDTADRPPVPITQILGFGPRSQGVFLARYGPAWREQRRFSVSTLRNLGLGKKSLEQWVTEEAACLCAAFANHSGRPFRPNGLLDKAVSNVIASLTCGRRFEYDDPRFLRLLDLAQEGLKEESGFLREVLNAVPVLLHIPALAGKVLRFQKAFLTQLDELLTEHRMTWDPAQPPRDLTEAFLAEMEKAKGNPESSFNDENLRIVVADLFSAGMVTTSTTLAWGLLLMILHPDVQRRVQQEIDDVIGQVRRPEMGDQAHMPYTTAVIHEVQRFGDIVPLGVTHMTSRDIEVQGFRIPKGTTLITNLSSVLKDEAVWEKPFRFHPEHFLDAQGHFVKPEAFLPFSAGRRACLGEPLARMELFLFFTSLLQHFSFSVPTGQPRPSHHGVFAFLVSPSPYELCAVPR
CYP3A4, sequence (P08684 whole entry): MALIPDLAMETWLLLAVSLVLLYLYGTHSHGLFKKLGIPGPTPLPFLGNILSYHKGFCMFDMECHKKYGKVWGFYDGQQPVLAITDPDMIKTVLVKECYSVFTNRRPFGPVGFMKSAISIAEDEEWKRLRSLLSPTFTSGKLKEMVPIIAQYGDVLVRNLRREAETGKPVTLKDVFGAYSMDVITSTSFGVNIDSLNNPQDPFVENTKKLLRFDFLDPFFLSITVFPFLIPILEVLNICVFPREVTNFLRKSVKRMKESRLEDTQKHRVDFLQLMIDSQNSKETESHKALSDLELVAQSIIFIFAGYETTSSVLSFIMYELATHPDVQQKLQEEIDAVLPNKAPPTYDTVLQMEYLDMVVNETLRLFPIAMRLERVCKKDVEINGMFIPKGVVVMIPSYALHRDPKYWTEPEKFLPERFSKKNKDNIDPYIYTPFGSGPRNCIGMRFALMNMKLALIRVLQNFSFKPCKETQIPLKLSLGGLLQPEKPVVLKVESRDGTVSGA
CYP2C9, sequence (P11712 whole entry): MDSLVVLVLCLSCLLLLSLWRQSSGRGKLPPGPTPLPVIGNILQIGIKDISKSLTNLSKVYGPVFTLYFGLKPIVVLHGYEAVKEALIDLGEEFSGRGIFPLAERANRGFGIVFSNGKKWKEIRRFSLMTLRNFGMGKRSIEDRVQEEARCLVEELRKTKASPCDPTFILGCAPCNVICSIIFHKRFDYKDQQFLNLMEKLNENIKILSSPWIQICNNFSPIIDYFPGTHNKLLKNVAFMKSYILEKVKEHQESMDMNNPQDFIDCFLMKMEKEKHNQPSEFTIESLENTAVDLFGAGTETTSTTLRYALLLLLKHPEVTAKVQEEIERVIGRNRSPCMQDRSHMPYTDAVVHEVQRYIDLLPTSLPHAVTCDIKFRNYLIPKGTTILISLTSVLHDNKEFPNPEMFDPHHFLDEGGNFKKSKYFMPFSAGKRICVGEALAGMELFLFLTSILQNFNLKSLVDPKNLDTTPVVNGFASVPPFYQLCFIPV
CYP2C19, sequence (P33261 whole entry): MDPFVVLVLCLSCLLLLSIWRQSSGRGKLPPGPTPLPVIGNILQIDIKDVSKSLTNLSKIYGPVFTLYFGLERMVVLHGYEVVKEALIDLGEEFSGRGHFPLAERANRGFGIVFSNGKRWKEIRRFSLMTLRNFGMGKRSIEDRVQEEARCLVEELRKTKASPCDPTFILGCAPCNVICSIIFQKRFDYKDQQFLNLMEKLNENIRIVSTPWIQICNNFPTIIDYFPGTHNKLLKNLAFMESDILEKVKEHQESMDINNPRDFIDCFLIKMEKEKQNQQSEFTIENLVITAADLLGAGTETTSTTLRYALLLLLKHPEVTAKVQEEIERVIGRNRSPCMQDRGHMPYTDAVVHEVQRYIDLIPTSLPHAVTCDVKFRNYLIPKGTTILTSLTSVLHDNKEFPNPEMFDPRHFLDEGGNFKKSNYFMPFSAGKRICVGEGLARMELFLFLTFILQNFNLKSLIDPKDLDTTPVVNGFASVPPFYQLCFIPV
hERG, sequence (Q12809 whole entry): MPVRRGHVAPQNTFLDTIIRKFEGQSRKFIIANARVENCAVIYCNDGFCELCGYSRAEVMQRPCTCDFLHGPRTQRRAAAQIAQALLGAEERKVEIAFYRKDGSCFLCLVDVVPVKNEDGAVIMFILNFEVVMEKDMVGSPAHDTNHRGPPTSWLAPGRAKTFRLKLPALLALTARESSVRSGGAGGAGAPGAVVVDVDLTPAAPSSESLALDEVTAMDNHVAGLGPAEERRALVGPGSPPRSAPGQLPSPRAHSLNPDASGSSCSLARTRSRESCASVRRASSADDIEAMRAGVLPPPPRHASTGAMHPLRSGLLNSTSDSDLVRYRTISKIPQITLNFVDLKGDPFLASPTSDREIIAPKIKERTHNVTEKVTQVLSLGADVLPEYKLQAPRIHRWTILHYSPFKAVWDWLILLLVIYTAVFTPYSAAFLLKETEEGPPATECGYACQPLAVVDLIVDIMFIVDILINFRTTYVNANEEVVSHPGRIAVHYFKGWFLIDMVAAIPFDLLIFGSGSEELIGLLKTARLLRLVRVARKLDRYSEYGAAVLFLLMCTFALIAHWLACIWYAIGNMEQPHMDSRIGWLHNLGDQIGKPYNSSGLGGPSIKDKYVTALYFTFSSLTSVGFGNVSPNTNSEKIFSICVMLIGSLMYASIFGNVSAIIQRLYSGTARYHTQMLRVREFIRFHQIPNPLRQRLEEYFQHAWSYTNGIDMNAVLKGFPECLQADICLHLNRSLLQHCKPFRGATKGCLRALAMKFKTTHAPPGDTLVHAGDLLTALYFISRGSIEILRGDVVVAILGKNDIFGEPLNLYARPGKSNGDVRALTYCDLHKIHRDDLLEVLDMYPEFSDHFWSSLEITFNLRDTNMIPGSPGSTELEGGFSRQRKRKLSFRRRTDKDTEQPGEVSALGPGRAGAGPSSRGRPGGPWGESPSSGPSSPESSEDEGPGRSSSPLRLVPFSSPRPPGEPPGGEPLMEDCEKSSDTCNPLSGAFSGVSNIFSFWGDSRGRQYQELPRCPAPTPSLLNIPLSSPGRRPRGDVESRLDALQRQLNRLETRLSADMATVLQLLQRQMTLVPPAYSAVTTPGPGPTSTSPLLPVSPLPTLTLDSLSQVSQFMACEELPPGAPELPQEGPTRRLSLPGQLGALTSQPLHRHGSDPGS
human Ether-à-go-go related gene (hERG) channel, sequence (Q12809 whole entry): as above

## Cc1nc2ccc(Cl)cn2c1C(=O)NCCCC1CCCCC1 [Compound 16, 6-chloro-N-(3-cyclohexylpropyl)-2-methylimidazo[1,2-a]pyridine-3-carboxamide]
Mtb V4207/DS
  MIC: 0.37 µM (≈ 0.124 µg/mL)
Mtb KZN494/MDR
  fold increase in activity against MDR Mtb strain KZN494: 2 fold
In vitro [1]
  IC50 at 72 h: ≥ 192 µM
Vero cells
  SI, Selectivity index = IC50 (Vero)/MIC: ≥1024
In vitro [2]
  fraction unbound: 0.0011
In vitro [3]
  fraction unbound: 0.0036
CYP1A2
  inhibition at 10 µM: 26.3%
CYP2C9
  inhibition at 10 µM: 32.2%
CYP2C19
  inhibition at 10 µM: 45.2%
CYP2D6
  inhibition at 10 µM: 16.4%
CYP3A4
  inhibition at 10 µM: 52.2%
hERG
  inhibition at 10 µM: 29.1%
[4]
  IC50: > 10 µM
In vitro [5]; 2 h, 1 μM
  % degraded after 2 hours incubation with human hepatocyte: over 95%
In vitro [5]; human, hepatocytes
  remaining at 2 h, 1 μM: 0.19%
In vitro [6]
  remaining at 1 h, 1 μM: ~1.5%
In vitro [7]
  remaining at 1 h, 1 μM: ~0.15%
Clinical isolates of Mtb
  MIC range against MDR and XDR strains of TB: 0.05 to 1.5 µM
  fold drop in activity against the tested clinical isolates of Mtb: up to 8 fold
Mtb H37Rv; ratio of MIC
  fold more active than isoniazid against H37Rv: 1.5 - 3 fold
  fold drop in activity relative to compound 15: approximately 2 fold
Mtb H37Rv
  Mtb MIC H37Rv/DS: 0.19 µM

## Cc1ccc2nc(C)c(C(=O)NCCCC3CCCCC3)n2c1 [Compound 15, N-(3-cyclohexylpropyl)-2,6-dimethylimidazo[1,2-a]pyridine-3-carboxamide]
Mtb V4207/DS
  MIC: 0.1 µM (≈ 0.0313 µg/mL)
Mtb KZN494/MDR
  fold increase in activity against MDR Mtb strain KZN494: 2 fold
In vitro [1]
  IC50 at 72 h: 102 µM
Vero cells
  SI, Selectivity index = IC50 (Vero)/MIC: 1024
Clinical isolates of Mtb
  MIC range against MDR and XDR strains of TB: 0.05 to 1.5 µM
  fold drop in activity against the tested clinical isolates of Mtb: up to 2 fold
Mtb H37Rv; ratio of MIC
  fold more active than isoniazid against H37Rv: 1.5 - 3 fold
  fold more active than compounds 9 and 13: 4 fold
Mtb H37Rv
  Mtb MIC H37Rv/DS: 0.10 µM

## O=C(NCCCC1CCCCC1)c1cn2ccc(Cl)cc2n1 [Compound 19, 7-chloro-N-(3-cyclohexylpropyl)imidazo[1,2-a]pyridine-2-carboxamide]
Mtb H37Rv
  anti-TB activity in words: less active

## Cc1ccc2nc(C)c(C(=O)NCC3CCCCCCC3)n2c1 [Compound 11, N-(cyclooctylmethyl)-2,6-dimethylimidazo[1,2-a]pyridine-3-carboxamide]
Mtb H37Rv; ratio of MIC
  fold more potent against M.tb than counterparts 3 - 5 with no carbon spacer: 133 fold

## O=C(NCCCC1CCCCC1)c1c(-c2ccccc2)nc2cc(Cl)ccn12 [Compound 17, 7-chloro-N-(3-cyclohexylpropyl)-2-phenylimidazo[1,2-a]pyridine-3-carboxamide]
Mtb H37Rv
  anti-TB activity in words: complete loss in activity

## O=C(NC1CCCCCCC1)c1cn2ccc(Cl)cc2n1 [Compound 18, 7-chloro-N-cyclooctylimidazo[1,2-a]pyridine-2-carboxamide]
Mtb H37Rv
  anti-TB activity in words: less active

## Cc1ccc2nc(C)c(C(=O)NCC34CC5CC(CC(C5)C3)C4)n2c1 [Compound 12, N-(adamantan-1-ylmethyl)-2,6-dimethylimidazo[1,2-a]pyridine-3-carboxamide]
Mtb H37Rv
  anti-TB activity in words: poor anti-TB activity

## Cc1ccc2nc(C)c(C(=O)NCC3CCCCC3)n2c1 [Compound 9, N-(cyclohexylmethyl)-2,6-dimethylimidazo[1,2-a]pyridine-3-carboxamide]
Mtb H37Rv; ratio of MIC
  fold more potent against M.tb than counterparts 3 - 5 with no carbon spacer: 267 fold

## Cc1ccc2nc(C)c(C(=O)NCC3CCCCCC3)n2c1 [Compound 10, N-(cycloheptylmethyl)-2,6-dimethylimidazo[1,2-a]pyridine-3-carboxamide]
Mtb H37Rv; ratio of MIC
  fold more potent against M.tb than counterparts 3 - 5 with no carbon spacer: 133 fold
